This is an account of results in US12065442B2, “Tropomyosin receptor kinase (TRK) degradation compounds and methods of use” (Cullgen (Shanghai), Inc., priority 2018, dated 2024).

For data set [1], the target named is T1, TPM3-TRKA fusion protein (Homo sapiens, UniProt P04629+P06753+Q96SW2). The data set is described as follows: Immunoblotting of TPM3-TRKA in KM12 subcutaneous xenograft tumors. Also noted: The resulted chimeric proteins always retain the kinase domain of TRK proteins; TPM3 (N-terminal fusion partner, natural gene fusion); from tissue; host or cells: KM12 subcutaneous xenograft tumors in athymic nude mice. The class given is in vivo, Athymic nude mice. Here is the method:
In addition to cultured cells, athymic nude mice bearing KM12 subcutaneous xenograft tumors at the right flank were intraperitoneally treated with 10, 20, or 50 mg/kg CPD-053, CPD-027, or CPD-060. Four hours after drug administration, animals were sacrificed for immunoblotting of TPM3-TPKA in homogenized xenograft tumor masses. The label “a” or “b” represents two different samples of the same xenograft tumor.
Athymic nude mice bearing KM12 subcutaneous xenograft tumors at the right flank were intraperitoneally treated with 10, 20, or 50 mg/kg CPD-053, CPD-027, or CPD-060, as indicated in FIG. 3. Four hours after drug administration, animals were sacrificed for immunoblotting of TPM3-TPKA in homogenized xenograft tumor chunks. The label “a” or “b” represents two different chunks of the same xenograft tumor.
Athymic nude mice bearing KM12 subcutaneous xenograft tumors at the right flank were intraperitoneally or orally treated with bivalent compounds at indicated dose. Eight hours after drug administration, animals were sacrificed for immunoblotting of TPM3-TPKA in homogenized xenograft tumor samples.
(§1) Cultured cells were washed with cold PBS once and lysed in cold RIPA buffer supplemented with protease inhibitors and phosphatase inhibitors (Beyotime Biotechnology). The solutions were then incubated at 4° C. for 30 minutes with gentle agitation to fully lyse cells. For tumor tissues, tumors were cut into small pieces, milled with cold RIPA buffer using a mechanical homogenizer and lysed for 1 hour at 4° C. Cell lysates were centrifuged at 13,000 rpm for 10 minutes at 4° C. and pellets were discarded. Total protein concentrations in the lysates were determined by BCA assays (Beyotime Biotechnology). Cell lysates were mixed with Laemmli loading buffer to 1× and heated at 99° C. for 5 min. Proteins were resolved on SDS-PAGE and visualized by chemiluminescence. Images were taken by a ChemiDoc MP Imaging system (Bio-Rad). Protein bands were quantitated using the software provided by Bio-Rad.
(§2) All animal experiments were performed under protocols approved by the Institutional Animal Care and Use Committee (IACUC) of Cullgen. Athymic nude mice (male, 5-weeks old) received 5 million KM12 cells subcutaneously inoculated at the right flank site. Ten days following inoculation, tumors were approximately 500 mm3 in size. Tumor-bearing mice were treated intraperitoneally with vehicle or bivalent compounds at indicated doses. Tumor sizes and body weight of mice were measured every 2 days. In addition, immunoblotting assays were employed to assess the levels of TRKA fusion proteins in xenograft tumors around 500 mm^3 in size following drug administration. At indicated hours after drug administration, selected mice were sacrificed, tumors were resected. Small chunks of tumors were homogenized for immunoblotting of TPM3-TPKA and other proteins as indicated.
(A western blot detects proteins with antibodies after separation by electrophoresis.)

For data set [2], the system named is KM12 subcutaneous xenograft tumors. The data set can be described thus: KM12 subcutaneous xenograft tumor growth study. The class given is in vivo, Athymic nude mice. As for the experimental part:
(§3) Athymic nude mice bearing KM12 subcutaneous xenograft tumors at the right flank were intraperitoneally treated with vehicle or 25 mg/kg CPD-060 once per day (qd), twice per day (bid), or once every two days (q2d). Tumor volumes were assessed every two days and expressed as length×width×width/2. Body weights of experimental mice were also measured to assess the toxicity of compounds.
(§4) Athymic nude mice bearing KM12 subcutaneous xenograft tumors at the right flank were treated with vehicle, 10-20 mg/kg TR-181 or TR-198 once per day (qd), or twice per day (bid) via oral gavage. Tumor volumes were assessed every two days and expressed as length×width×width/2. Body weights of experimental mice were also measured to assess the toxicity of compounds.
as §2

The nature of data set [3]: Body weight of xenograft-bearing mice (toxicity). The class given is in vivo, Athymic nude mice. As for the experimental part:
as §3, §4, §2

The next data set deals with KM12 cells. The data set is described as follows: Cell viability assay (CellTiter-Glo) in KM12 cells. The class given is cell-based. As to conditions: Homo sapiens, 72 h, KM12 cell viability, CellTiter-Glo, 3 days, read-out: IC50.
Data set [4] addresses T1, TPM3-TRKA fusion protein. The data set can be described thus: Immunoblotting of TPM3-TRKA fusion protein in KM12 cells. More on the design: The resulted chimeric proteins always retain the kinase domain of TRK proteins; TPM3 (N-terminal fusion partner, natural gene fusion); endogenous in cells; host or cells: KM12 colon cancer cells. The class given is cell-based. Here is the method: Specific exemplary bivalent compounds were characterized in KM12 cells. […] Cells were collected, lysed and subject to immunoblotting using an antibody specific to TRK proteins. GAPDH was included as the loading control. DMSO was used as the negative control.
KM12 cells were treated with DMSO or indicated compounds at 100 nM for 16 hours.
KM12 cells were treated with CPD-027, CPD-053, and CPD-060 at 100 nM for indicated incubation time. […]
(§5) KM12 or HEL cells were treated with a dose range of compound TR-123 or TR-123-negative. The latter lost binding to cereblon (CRBN) due to a chemical modification.
KM12 or HEL cells were treated with a single dose of compound TR-123 or combination with MG-132, Bortezomib, MLN4924 or Pomalidomide. […]
as §1

In a further data set the test system is TRK-fusions. Conditions: cited from earlier work.
Data set [5] is described as follows: Mouse pharmacokinetic (PK) studies. The class given is in vivo. Conditions: mice; for plasma exposure: single 20 mg/kg intraperitoneal injection, over 12 hours (FIG. 11), 20 mg/kg. Here is the method: To investigate the pharmacokinetics of bi-functional compounds, exemplified by TR-123, a single 20 mg/kg intraperitoneal injection was evaluated. […] Additionally, doses of 2 mg/kg TR-198 via intravenous injection and 20 mg/kg TR-198 via oral gavage were evaluated in mice.
A single 20 mg/kg intraperitoneal injection of compound TR-123 was evaluated. Plasma concentrations of TR-123 reported at each of the 6 time points (30 min, 1 h, 2 h, 4 h, 8 h, and 12 h post compound administration) are the average values from 3 test animals.
A single 2 mg/kg intravenous injection and 20 mg/kg oral gavage of TR-198 were evaluated in mice.
Plasma concentrations of TR-198 reported at each of the 6 time points (5 min, 30 min, 2 h, 4 h, 8 h, and 12 h post compound administration via IV, 30 min, 1 h, 2 h, 4 h, 8 h, and 12 h post compound administration via p.o.) are the average values from 3 test animals.
Standard PK studies were conducted using male Swiss Albino mice by Sai Life Sciences. A single 20 mg/kg intraperitoneal (IP) injection of compound TR-123 was evaluated. Plasma concentrations of TR-123 reported at each of the 6 time points (30 min, 1 h, 2 h, 4 h, 8 h, and 12 h post dosing) are the average values from 3 test animals. Error bars represent+SD.

The next data set addresses T2, wild type TRKA protein (Homo sapiens, UniProt P04629).
T2 construct: immunoblot of wild type TRKA protein expressed by HEL cells; endogenous in cells; host or cells: HEL cells
The data set is described as follows: Immunoblotting of wild type TRKA protein in HEL cells. The class given is cell-based. As for the experimental part:
as §5
KM12 or HEL cells were treated with a single dose of compound TR-123 or combination with MG-132, Bortezomib, MLN4924 or Pomalidomide.
as §1

SMILES strings stand for the structures. “Also recorded” adds a separate entry of the source. Read-outs that look alike come from different tables or passages of the source.

T1 sequence (P06753+P04629 fused): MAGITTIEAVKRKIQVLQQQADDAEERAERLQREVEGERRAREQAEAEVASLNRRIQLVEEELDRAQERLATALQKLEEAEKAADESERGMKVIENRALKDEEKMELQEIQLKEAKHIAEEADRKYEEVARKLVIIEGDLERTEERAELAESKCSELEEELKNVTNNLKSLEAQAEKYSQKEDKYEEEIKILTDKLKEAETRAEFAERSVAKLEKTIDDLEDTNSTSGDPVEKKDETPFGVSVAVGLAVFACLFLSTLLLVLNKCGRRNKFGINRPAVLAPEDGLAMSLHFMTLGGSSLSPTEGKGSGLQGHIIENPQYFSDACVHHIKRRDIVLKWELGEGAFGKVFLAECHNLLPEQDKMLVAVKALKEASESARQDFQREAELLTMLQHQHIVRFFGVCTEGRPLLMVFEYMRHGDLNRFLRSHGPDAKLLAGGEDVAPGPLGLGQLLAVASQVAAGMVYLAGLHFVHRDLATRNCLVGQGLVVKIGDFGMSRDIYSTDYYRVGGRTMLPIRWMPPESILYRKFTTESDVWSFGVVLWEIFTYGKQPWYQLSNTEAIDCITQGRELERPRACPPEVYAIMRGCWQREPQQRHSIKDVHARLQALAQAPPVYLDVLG
T1 sequence (Q96SW2 whole entry, the tested form may be a part): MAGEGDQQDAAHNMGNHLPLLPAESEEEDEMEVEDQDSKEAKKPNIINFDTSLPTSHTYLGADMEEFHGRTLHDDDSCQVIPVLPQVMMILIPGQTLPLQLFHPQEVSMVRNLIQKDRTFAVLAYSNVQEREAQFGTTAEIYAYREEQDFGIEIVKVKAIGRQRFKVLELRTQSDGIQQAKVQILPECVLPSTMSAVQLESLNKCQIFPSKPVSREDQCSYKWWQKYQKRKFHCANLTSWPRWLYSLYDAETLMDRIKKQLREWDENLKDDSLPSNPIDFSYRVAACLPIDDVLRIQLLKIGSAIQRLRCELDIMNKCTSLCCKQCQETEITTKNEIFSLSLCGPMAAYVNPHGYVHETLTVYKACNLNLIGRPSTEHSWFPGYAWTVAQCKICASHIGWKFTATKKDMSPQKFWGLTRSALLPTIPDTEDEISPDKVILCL
T1 sequence (Q16531 whole entry partner, the tested form may be a part): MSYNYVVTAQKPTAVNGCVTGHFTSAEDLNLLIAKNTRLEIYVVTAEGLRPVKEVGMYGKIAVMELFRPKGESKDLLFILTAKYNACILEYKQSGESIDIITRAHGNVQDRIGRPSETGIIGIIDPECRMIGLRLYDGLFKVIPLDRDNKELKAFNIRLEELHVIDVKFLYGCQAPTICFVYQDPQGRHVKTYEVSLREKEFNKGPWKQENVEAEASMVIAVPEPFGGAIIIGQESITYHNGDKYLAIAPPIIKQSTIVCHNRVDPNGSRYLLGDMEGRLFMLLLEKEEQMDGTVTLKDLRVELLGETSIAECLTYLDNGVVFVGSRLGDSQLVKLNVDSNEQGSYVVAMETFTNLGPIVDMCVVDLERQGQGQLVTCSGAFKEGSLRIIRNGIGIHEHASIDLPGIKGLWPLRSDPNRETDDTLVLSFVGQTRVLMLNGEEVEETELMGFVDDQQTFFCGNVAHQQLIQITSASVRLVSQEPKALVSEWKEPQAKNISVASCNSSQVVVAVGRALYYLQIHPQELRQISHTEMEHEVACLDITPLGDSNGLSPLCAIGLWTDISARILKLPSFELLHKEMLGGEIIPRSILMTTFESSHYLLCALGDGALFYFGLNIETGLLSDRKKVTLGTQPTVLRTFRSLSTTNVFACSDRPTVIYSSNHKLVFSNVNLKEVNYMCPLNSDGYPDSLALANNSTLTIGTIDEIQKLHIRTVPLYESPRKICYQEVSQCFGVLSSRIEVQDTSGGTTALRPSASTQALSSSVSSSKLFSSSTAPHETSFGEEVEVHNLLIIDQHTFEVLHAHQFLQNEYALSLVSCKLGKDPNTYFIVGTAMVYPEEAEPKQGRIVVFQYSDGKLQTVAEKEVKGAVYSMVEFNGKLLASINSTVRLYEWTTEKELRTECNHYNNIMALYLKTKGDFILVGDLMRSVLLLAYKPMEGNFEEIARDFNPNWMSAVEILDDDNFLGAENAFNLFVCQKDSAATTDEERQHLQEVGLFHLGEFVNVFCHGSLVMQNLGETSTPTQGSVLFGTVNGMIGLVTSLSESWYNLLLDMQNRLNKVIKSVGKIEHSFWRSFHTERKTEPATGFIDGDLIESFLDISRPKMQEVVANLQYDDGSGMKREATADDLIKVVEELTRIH
T2 sequence (P04629 33-796): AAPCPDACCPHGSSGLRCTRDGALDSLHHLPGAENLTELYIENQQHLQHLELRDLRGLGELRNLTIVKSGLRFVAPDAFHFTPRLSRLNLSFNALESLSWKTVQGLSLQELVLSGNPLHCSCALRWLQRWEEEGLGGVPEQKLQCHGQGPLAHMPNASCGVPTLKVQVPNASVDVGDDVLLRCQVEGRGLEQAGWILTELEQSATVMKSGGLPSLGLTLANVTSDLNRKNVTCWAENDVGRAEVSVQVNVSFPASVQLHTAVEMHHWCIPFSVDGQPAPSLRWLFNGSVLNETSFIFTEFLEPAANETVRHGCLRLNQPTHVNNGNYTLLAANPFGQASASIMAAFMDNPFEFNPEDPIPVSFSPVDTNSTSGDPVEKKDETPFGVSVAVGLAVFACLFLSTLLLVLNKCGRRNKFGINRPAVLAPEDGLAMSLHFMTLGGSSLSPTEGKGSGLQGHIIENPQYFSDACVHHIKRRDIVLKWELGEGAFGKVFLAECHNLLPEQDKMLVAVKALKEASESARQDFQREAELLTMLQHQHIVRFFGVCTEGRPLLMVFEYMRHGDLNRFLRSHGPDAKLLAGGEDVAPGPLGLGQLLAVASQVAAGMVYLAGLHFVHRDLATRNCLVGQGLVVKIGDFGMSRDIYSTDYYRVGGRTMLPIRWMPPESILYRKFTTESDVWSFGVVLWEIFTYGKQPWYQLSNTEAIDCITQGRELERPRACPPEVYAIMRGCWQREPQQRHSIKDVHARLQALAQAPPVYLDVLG

With `O=C(CN1CCN(c2cccc(-c3cnc4ccc(N5CCC[C@@H]5c5cccc(F)c5)nn34)n2)CC1)NCCNc1cccc2c1C(=O)N(C1CCC(=O)NC1=O)C2=O` (stereo partly drawn) [CPD-060, N-(2-((2-(2,6-dioxopiperidin-3-yl)-1,3-dioxoisoindolin-4-yl)amino)ethyl)-2-(4-(6-(6-((R)-2-(3-fluorophenyl)pyrrolidin-1-yl)imidazo[1,2-b]pyridazin-3-yl)pyridin-2-yl)piperazin-1-yl)acetamide], the “TPM3-TRKA protein levels in KM12 subcutaneous xenograft tumors” value at TPM3-TRKA fusion protein [1] (10, 20, or 50 mg/kg intraperitoneally, single dose, four hours after administration (FIG. 3)) is recorded as “significantly reducing TPM3-TRKA protein levels”. Besides, in data set [2] (25 mg/kg intraperitoneally qd, bid or q2d (FIG. 12A)), the “growth of KM12 subcutaneous xenograft tumors” value is on record as “significantly repressed the growth”. For the same compound, in data set [3] (25 mg/kg intraperitoneally qd, bid or q2d (FIG. 12B)), the body weight entry was “without inducing substantial weight losses”. For the same compound, the 50% inhibitory concentration (IC50) – broadly, the concentration at which inhibition is half-maximal – with KM12 cells (Table 2) stood at 6 nM. Further, at TPM3-TRKA fusion protein [4] (100 nM (FIG. 2)), the “time after adding compound at which significant degradation of TPM3-TRKA was detected” value came to 15 min. Also, the TPM3-TRKA protein levels result at TPM3-TRKA fusion protein [4] (100 nM, 16 hours (FIG. 1A-1C)) is reported as “particularly effective in reducing TPM3-TRKA protein levels”. Also, the “TPM3-TRKA protein levels, time course” value on TPM3-TRKA fusion protein [4] (100 nM, indicated incubation time (FIG. 2)) is “rapidly reduced TPM3-TRKA protein levels”.

As to `O=C(Nc1cnn2ccc(N3CCC[C@@H]3c3cc(F)ccc3F)nc12)N1CC[C@H](O)C1` [LOXO-101, larotrectinib], the “patients who responded to the therapy” value in the data set on TRK-fusions (phase 2 (Drilon et al., 2018)) was 75%. The patients remaining progression-free with TRK-fusions (phase 2, at 1 year (Drilon et al., 2018)) is reported as 55%. For the same compound, the concentration for half-maximal inhibition (IC50) with KM12 cells (Table 3) is 25 nM.

On to `O=C1CCC(N2C(=O)c3ccc(NCC(=O)N4CCN(c5cccc(-c6cnc7ccc(N8CCC[C@@H]8c8cccc(F)c8)nn67)n5)CC4)cc3C2=O)C(=O)N1` (stereo partly shown) [TR123], for which, in data set [5], the plasma exposure result is listed as “good plasma exposure”.

As to `O=C1CCC(N2C(=O)c3ccc(NCC(=O)N4CCN(c5cccc(-c6cnc7ccc(N8CCC[C@@H]8c8cccc(F)c8)nn67)n5)CC4)cc3C2=O)C(=O)N1` (stereo partly drawn) [TR-123, 2-(2,6-dioxopiperidin-3-yl)-5-((2-(4-(6-(6-((R)-2-(3-fluorophenyl)pyrrolidin-1-yl)imidazo[1,2-b]pyridazin-3-yl)pyridin-2-yl)piperazin-1-yl)-2-oxoethyl)amino)isoindoline-1,3-dione], the “TPM3-TRKA degradation in KM12 subcutaneous tumors” value at TPM3-TRKA fusion protein [1] (intraperitoneal or oral administration, eight hours after administration (FIG. 10)) is “exhibited the activities to induce TPM3-TRKA degradation”. In the data set on KM12 cells (Table 3), the concentration for half-maximal inhibition (IC50) worked out at 1.7 nM. The TRKA protein levels result at wild type TRKA protein (dose range (FIG. 8B)) is on record as “reduced TRKA protein levels in a concentration-dependent manner; also recorded: significant degradation of full-length TRKA”; on TPM3-TRKA fusion protein [4] (dose range (FIG. 8A)) it was “reduced TRKA protein levels in a concentration-dependent manner”. Also, at wild type TRKA protein (single dose (FIG. 9B)), the “TRKA degradation in combination with MG-132, Bortezomib, MLN4924 or Pomalidomide” value is “compromised”. Moreover, at TPM3-TRKA fusion protein [4] (single dose (FIG. 9A)), the “TRKA degradation in combination with MG-132, Bortezomib or MLN4924” value is reported as “compromised”. Further, the plasma exposure result in data set [5] is given as “significant plasma exposure”.

On to `O=C1CCC(N2C(=O)c3ccc(N4CC(CN5CCN(c6cccc(-c7cnc8ccc(N9CCC[C@@H]9c9cccc(F)c9)nn78)n6)CC5)C4)cc3C2=O)C(=O)N1` (stereo partly drawn) [TR-198, 2-(2,6-dioxopiperidin-3-yl)-5-(3-((4-(6-(6-((R)-2-(3-fluorophenyl)pyrrolidin-1-yl)imidazo[1,2-b]pyridazin-3-yl)pyridin-2-yl)piperazin-1-yl)methyl)azetidin-1-yl)isoindoline-1,3-dione], for which the “growth of KM12 subcutaneous xenograft tumors” value in data set [2] (10-20 mg/kg qd or bid via oral gavage (FIG. 15A)) was “significant in vivo anti-tumor activity; also recorded: significantly repressed the growth”. The body weight entry in data set [3] (10-20 mg/kg qd or bid via oral gavage (FIG. 15B)) is on record as “without inducing substantial weight losses”. Also, in the data set on KM12 cells (Table 3), the half-maximal inhibitory concentration (IC50) worked out at 5.5 nM. Also, the bioavailability (commonly dose-corrected exposure relative to a reference, in per cent) in data set [5] (male, Swiss Albino, mouse, plasma, 2 mg/kg intravenous injection and 20 mg/kg oral gavage, over 12 hours (FIG. 14)) was about 16%.
